Where two headings read alike, the source gives them in different places. Marks after values point to notes of the source that are not given here.
Legend:
RAW 264.7 macrophages = assay: In vitro cytotoxicity (CytoTox-ONE, LDH release); details: 12 hours
Saccharomyces cerevisiae = assay: MIC100 against yeast (CLSI M27-A3); assay type: cell-based; details: Saccharomyces cerevisiae W303
Candida albicans = assay: Checkerboard microdilution synergy (FIC); assay type: cell-based; details: for MIC: Candida albicans; for MIC Combined: FLC and MM:TM in combination
[1] = MM:TM (40:60) with Fluconazole, isolate K1 (Fluconazole Resistant), […]10^5 cells/mL, 30° C.

For `C[C@@H]1[C@H](O)[C@@H](C)/C=C/C=C/C=C/C=C/C=C/C=C/C=C/[C@H](O[C@@H]2O[C@H](C)[C@@H](O)[C@H](N)[C@@H]2O)C[C@@H]2O[C@](O)(C[C@@H](O)C[C@@H](O)[C@H](O)CC[C@@H](O)C[C@@H](O)CC(=O)O[C@H]1C)C[C@H](O)[C@H]2C(=O)O` [AMB, amphotericin B], the “cell death at the highest concentration tested” value (RAW 264.7 macrophages) was “less than 50%” and the “concentration causing 10% cell death (IC10)” value (RAW 264.7 macrophages) was 108 µM.

With `OC(Cn1cncn1)(Cn1cncn1)c1ccc(F)cc1F` [FLC, fluconazole] the MIC50 (Saccharomyces cerevisiae) was less than 1 µg/mL, the MIC (Candida albicans; 48 h, K1, FLC and MM:TM, single agent, […]10^5 cells/mL, 30°C, OD600 48 h, read-out: MIC Alone) was greater than 164 µM and the MIC (Candida albicans; 48 h, K1, Fluconazole and MM:TM, […]10^5 cells/mL, 30°C, OD600 48 h, Avg., read-out: MIC alone) was greater than 163 µM. The MIC (Candida albicans; 48 h, K1, Fluconazole and MM:TM, […]10^5 cells/mL, 30°C, OD600 48 h, trial 1, read-out: MIC alone) was greater than 81.6 µM, the MIC (Candida albicans; 48 h, K1, Fluconazole and MM:TM, […]10^5 cells/mL, 30°C, OD600 48 h, trial 2, read-out: MIC alone) was greater than 163 µM and the MIC (Candida albicans; 48 h, K1, Fluconazole and MM:TM, […]10^5 cells/mL, 30°C, OD600 48 h, trial 3, read-out: MIC alone) was greater than 81.6 µM. It also gave an MIC (Candida albicans; 48 h, K1, fluconazole and MM:TM, […]10^5 cells/mL, 30°C, OD600 48 h, Avg., read-out: MIC alone) greater than 50 µg/mL, an MIC (Candida albicans; 48 h, K1, fluconazole and MM:TM, […]10^5 cells/mL, 30°C, OD600 48 h, trial 1, read-out: MIC alone) greater than 25 µg/mL and an MIC (Candida albicans; 48 h, K1, fluconazole and MM:TM, […]10^5 cells/mL, 30°C, OD600 48 h, trial 2, read-out: MIC alone) greater than 50 µg/mL. The MIC (Candida albicans; 48 h, K1, fluconazole and MM:TM, […]10^5 cells/mL, 30°C, OD600 48 h, trial 3, read-out: MIC alone) was greater than 25 µg/mL, the MIC (Candida albicans; [1]) was greater than 50 µg/mL and the MIC (Candida albicans; NM20 with Fluconazole, C. albicans K1, […] 10^5 cells/mL) was greater than 25 µg/mL. It also gave an MIC (Candida albicans; SC5314, 48 h, SC5314, FLC and MM:TM, single agent, […]10^5 cells/mL, 30°C, OD600 48 h, read-out: MIC Alone) of less than 1 µM, an MIC (Candida albicans; SC5314, 48 h, SC5314, Fluconazole and MM:TM, […]10^5 cells/mL, 30°C, OD600 48 h, Avg., read-out: MIC alone) of less than 1 µM and an MIC (Candida albicans; SC5314, 48 h, SC5314, Fluconazole and MM:TM, […]10^5 cells/mL, 30°C, OD600 48 h, trial 1, read-out: MIC alone) of less than 0.7 µM. The MIC (Candida albicans; SC5314, 48 h, SC5314, Fluconazole and MM:TM, […]10^5 cells/mL, 30°C, OD600 48 h, trial 2, read-out: MIC alone) was less than 2.6 µM, the MIC (Candida albicans; SC5314, 48 h, SC5314, Fluconazole and MM:TM, […]10^5 cells/mL, 30°C, OD600 48 h, trial 3, read-out: MIC alone) was less than 1.3 µM and the MIC (Candida albicans; SC5314, 48 h, SC5314, fluconazole and MM:TM, […]10^5 cells/mL, 30°C, OD600 48 h, Avg., read-out: MIC alone) was less than 0.3 µg/mL. The MIC (Candida albicans; SC5314, 48 h, SC5314, fluconazole and MM:TM, […]10^5 cells/mL, 30°C, OD600 48 h, trial 1, read-out: MIC alone) was less than 0.2 µg/mL, the MIC (Candida albicans; SC5314, 48 h, SC5314, fluconazole and MM:TM, […]10^5 cells/mL, 30°C, OD600 48 h, trial 2, read-out: MIC alone) was less than 0.8 µg/mL and the MIC (Candida albicans; SC5314, 48 h, SC5314, fluconazole and MM:TM, […]10^5 cells/mL, 30°C, OD600 48 h, trial 3, read-out: MIC alone) was less than 0.4 µg/mL. The MIC (Candida albicans; SC5314, NM20 with Fluconazole, C. albicans SC5314, […] 10^5 cells/mL) was greater than 25 µg/mL, the MIC (Candida albicans; SC5314, Table 43, MM:TM with Fluconazole, isolate SC5314, […] 10^5 cells/mL) was less than 0.3 µg/mL and the MIC (Candida albicans; Table 43, MM:TM with Fluconazole, isolate K1, […] 10^5 cells/mL) was greater than 50 µg/mL. For the same compound, the “MIC Combined” value (Candida albicans; K1, […]10^5 cells/mL, 30°C, OD600 48 h) was <1.3^i μM, the FIC (Candida albicans; K1, Fluconazole and MM:TM, Avg., Table 13) was 0.002 and the MIC combo (Candida albicans; K1, Fluconazole and MM:TM, […]10^5 cells/mL, 30°C, OD600 48 h, Avg.) was less than 1.3 µM. For the same compound, the MIC combo (Candida albicans; K1, Fluconazole and MM:TM, […]10^5 cells/mL, 30°C, OD600 48 h, trial 1) was less than 1.3 µM, the MIC combo (Candida albicans; K1, Fluconazole and MM:TM, […]10^5 cells/mL, 30°C, OD600 48 h, trial 2) was less than 2.6 µM and the MIC combo (Candida albicans; K1, Fluconazole and MM:TM, […]10^5 cells/mL, 30°C, OD600 48 h, trial 3) was less than 1.3 µM. For the same compound, the FIC (Candida albicans; K1, Fluconazole and MM:TM, trial 1, Table 13) was 0.004, the FIC (Candida albicans; K1, Fluconazole and MM:TM, trial 2, Table 13) was 0.004 and the FIC (Candida albicans; K1, Fluconazole and MM:TM, trial 3, Table 13) was 0.004. For the same compound, the FIC (Candida albicans; K1, fluconazole and MM:TM, Avg.) was 0.002, the MIC combo (Candida albicans; K1, fluconazole and MM:TM, […]10^5 cells/mL, 30°C, OD600 48 h, Avg.) was less than 0.4 µg/mL and the MIC combo (Candida albicans; K1, fluconazole and MM:TM, […]10^5 cells/mL, 30°C, OD600 48 h, trial 1) was less than 0.4 µg/mL. It also gave an MIC combo (Candida albicans; K1, fluconazole and MM:TM, […]10^5 cells/mL, 30°C, OD600 48 h, trial 2) of less than 0.8 µg/mL, an MIC combo (Candida albicans; K1, fluconazole and MM:TM, […]10^5 cells/mL, 30°C, OD600 48 h, trial 3) of less than 0.4 µg/mL and an FIC (Candida albicans; K1, fluconazole and MM:TM, trial 1) of 0.004. The FIC (Candida albicans; K1, fluconazole and MM:TM, trial 2) was 0.004, the FIC (Candida albicans; K1, fluconazole and MM:TM, trial 3) was 0.004 and the “improvement in antifungal activity (fluconazole MIC in combination with copolymer)” value (Candida albicans; K1 strain) was no less than 100 fold. The FICazole (Candida albicans; [1]) was 0.004, the FICazole (Candida albicans; MM:TM (40:60) with Fluconazole, isolate SC5314 (Senstive), […]10^5 cells/mL, 30° C.) was 1 and the “MIC Combined” value (Candida albicans; SC5314, […]10^5 cells/mL, 30°C, OD600 48 h) was less than 1.0 µM. The FIC (Candida albicans; SC5314, Fluconazole and MM:TM, Avg., Table 13) was 1, the MIC combo (Candida albicans; SC5314, Fluconazole and MM:TM, […]10^5 cells/mL, 30°C, OD600 48 h, Avg.) was less than 1.0 µM and the MIC combo (Candida albicans; SC5314, Fluconazole and MM:TM, […]10^5 cells/mL, 30°C, OD600 48 h, trial 1) was less than 0.7 µM. It also gave an MIC combo (Candida albicans; SC5314, Fluconazole and MM:TM, […]10^5 cells/mL, 30°C, OD600 48 h, trial 2) of less than 2.6 µM, an MIC combo (Candida albicans; SC5314, Fluconazole and MM:TM, […]10^5 cells/mL, 30°C, OD600 48 h, trial 3) of less than 1.3 µM and an FIC (Candida albicans; SC5314, Fluconazole and MM:TM, trial 1, Table 13) of 1. For the same compound, the FIC (Candida albicans; SC5314, Fluconazole and MM:TM, trial 2, Table 13) was 1, the FIC (Candida albicans; SC5314, Fluconazole and MM:TM, trial 3, Table 13) was 1 and the FIC (Candida albicans; SC5314, fluconazole and MM:TM, Avg.) was 1. It also gave an MIC combo (Candida albicans; SC5314, fluconazole and MM:TM, […]10^5 cells/mL, 30°C, OD600 48 h, Avg.) of less than 0.3 µg/mL, an MIC combo (Candida albicans; SC5314, fluconazole and MM:TM, […]10^5 cells/mL, 30°C, OD600 48 h, trial 1) of less than 0.2 µg/mL and an MIC combo (Candida albicans; SC5314, fluconazole and MM:TM, […]10^5 cells/mL, 30°C, OD600 48 h, trial 2) of less than 0.8 µg/mL. It also gave an MIC combo (Candida albicans; SC5314, fluconazole and MM:TM, […]10^5 cells/mL, 30°C, OD600 48 h, trial 3) of less than 0.4 µg/mL, an FIC (Candida albicans; SC5314, fluconazole and MM:TM, trial 1) of 1 and an FIC (Candida albicans; SC5314, fluconazole and MM:TM, trial 2) of 1. For the same compound, the FIC (Candida albicans; SC5314, fluconazole and MM:TM, trial 3) was 1.
